System: leucémie murine L 1210
Experiment: Cytotoxic activity on murine leukaemia L 1210 cells in suspension culture, cell count after 48 h
Format: cell-based
Details: Mus musculus, L1210; concentration reducing growth by 50 % versus controls; 48 heures d'incubation; Coulter Counter; 37°C, 5 % CO₂
Method: L'activité cytotoxique a été evaluée sur le modèle de la leucémie murine L 1210 cultivée en suspension en milieu iquide à 37°C sous une atmosphère de 5 % CO₂.
Les cellules en phase exponentielle de croissance sont incubées en présence de concentrations croissantes des produits. Après 48 heures d'incubation, les cellules sont comptées (Coulter Counter) et l'effet cytotoxique est évalué par la détermination par régression linéaire de la concentration du produit ayant réduit de 50 % la croissance par rapport aux témoins (IC₅₀).

Row | Structure (SMILES) | IC50 [µM]
1 | COCc1c(O)ccc2cc3ccc4ncccc4c3nc12 [Exemple 2, Hydroxy-10 méthoxyméthyl-11 benzo [b] phénanthroline-1,7] | 6.5
2 | CN1COCc2c1ccc1cc3ccc4ncccc4c3nc21 [Exemple 4, Dihydro-3,4 méthyl-4 1H-benzoxazino [3,1] [5,6-b] phénanthroline-1,7] | 1.3
3 | CNc1ccc2cc3ccc4ncccc4c3nc2c1COC [Exemple 6, Méthoxyméthyl-11 méthylamino-10 benzo [b] phénanthroline-1,7] | 1.1
4 | CNc1ccc2cc3ccc4ncccc4c3nc2c1CO [Exemple 7, Hydroxyméthyl-11 méthylamino-10 benzo [b] phénanthroline-1,7] | 0.17

Source: EP0502020B1, “NOVEL BENZO [b] PHENANTHROLINE-1,7 DERIVATIVES, AND THEIR PREPARATION AND THERAPEUTICAL APPLICATIONS” (PIERRE FABRE MEDICAMENT, priority 1989, dated 1991)
